Reference: patent US9210928B2, “Plant development control composition” (Syngenta Crop Protection, LLC, priority 2008, dated 2015)
Entries after “also recorded” stand apart in the source; their conditions may differ.

Assays:
LeCCD1a [1] = assay: In vivo enzyme assay in β-carotene-producing E. coli expressing LeCCD1a; type: cell-based, Solanum lycopersicum; settings: 100 μM inhibitor, 16 hours; FIG. 4
Excerpt: In vivo enzyme assays in E. coli—The genes of interest (supplemental Table S1) were cloned into the vector pET30c (Novagen) fused directly to the initial ATG codon with no tag, or into pGEX-4T such that the gene was fused to an N-terminal GST tag. All genes were full length except AtCCD7, which had the chloroplast signal sequence removed (supplemental methods). […] Therefore, this construct was used in subsequent assays. The plasmids were transferred to the E. coli expression strain BL21(DE3), harbouring pAC-BETA (38), and therefore producing β-carotene.
For each inhibitor assay, 2.5 ml LB media with the appropriate antibiotics (25 μg ml^−1 chloramphenicol and 50 μg ml^−1 kanamycin or 100 μg ml^−1 ampicillin) and 2.5 μM IPTG, was prepared. Inhibitors (0.1 M in 100% ethanol) were added to the media to a final concentration of 100 μM. The media was then inoculated with 0.25 ml of overnight culture (grown at 37° C. with the appropriate antibiotics) and incubated with shaking (200 rpm) at 28° C. for 16 hours. One ml of culture was harvested by microcentrifugation and resuspended thoroughly in 1 ml ethanol containing 0.2% Triton X-100. After vortexing, the extract was incubated at room temperature in the dark for 3 hours, again vortexed and then spun in a microcentrifuge for 5 min at 13000 rpm. The supernatant was removed and the O.D.453-O.D.550 was measured. The amount of β-carotene was calculated using a standard curve generated from a dilution series of β-carotene (Sigma) in ethanol with 0.2% Triton X-100; the absolute levels of β-carotene are shown in FIG. 8. The relative inhibition was calculated by the equation: (Ci−Cc)/(C1−Cc)×100, where Ci is the carotenoid level with inhibitor and CCD present, Cc is the level with CCD but without the inhibitor and C1 is the level in a strain where lacZ is expressed instead of the CCD, and no inhibitor is present. Thus the increase in β-carotene due to inhibition of the CCD […] was expressed relative to the maximum possible β-carotene content when CCD is absent (C1−Cc).
In vivo activity of inhibitors applied to E. coli strains expressing CCDs—Coloured E. coli strains that produce various carotenoids can be constructed by expression of enzymes for carotenoid synthesis (26). Upon co-expression of the appropriate CCD, the bacteria lose their colour due to cleavage of the carotenoids to colourless products (4,6,27). This technique was employed here to further explore the specificity of inhibitors, and to test their activity in vivo. The level of carotenoid in each CCD-expressing strain was compared to the level of the carotenoid in a control strain producing β-carotene but lacking any CCD gene. The difference in the carotenoid levels gave a measure of CCD activity, and inhibition of this activity was measured by addition of inhibitors to the growing medium.
The inhibitors were tested against four β-carotene-producing E. coli strains (supplemental Table S1). Three of the strains expressed highly divergent CCDs that cleave at the 9,10 position: AtCCD7 from Arabidopsis (21) and MmBCO2 from mouse (6) which both cleave at a single site (9,10 or 9′,10′ but not both), and the tomato enzyme LeCCD1a (44) which cleaves at both sites in the same substrate molecule (9,10/9′,10′ activity). The fourth strain expressed another mouse CCD, MmBCO1 (47), which cleaves centrally at 15,15′. […]

LeCCD1a [2] = target: LeCCD1a (Solanum lycopersicum, UniProt Q6E4P5); assay: In vitro LeCCD1a enzyme assay (recombinant cell-free extract, colourimetric, apo-8′-carotenal substrate); type: biochemical, tomato (Solanum lycopersicum); settings: for inhibition at 100 µM: read-out: LeCCD1a (9,10/9′,10′) Inhibition @ 100 μM (%)
Chain of LeCCD1a (Solanum lycopersicum, UniProt Q6E4P5) (Q6E4P5 1-545): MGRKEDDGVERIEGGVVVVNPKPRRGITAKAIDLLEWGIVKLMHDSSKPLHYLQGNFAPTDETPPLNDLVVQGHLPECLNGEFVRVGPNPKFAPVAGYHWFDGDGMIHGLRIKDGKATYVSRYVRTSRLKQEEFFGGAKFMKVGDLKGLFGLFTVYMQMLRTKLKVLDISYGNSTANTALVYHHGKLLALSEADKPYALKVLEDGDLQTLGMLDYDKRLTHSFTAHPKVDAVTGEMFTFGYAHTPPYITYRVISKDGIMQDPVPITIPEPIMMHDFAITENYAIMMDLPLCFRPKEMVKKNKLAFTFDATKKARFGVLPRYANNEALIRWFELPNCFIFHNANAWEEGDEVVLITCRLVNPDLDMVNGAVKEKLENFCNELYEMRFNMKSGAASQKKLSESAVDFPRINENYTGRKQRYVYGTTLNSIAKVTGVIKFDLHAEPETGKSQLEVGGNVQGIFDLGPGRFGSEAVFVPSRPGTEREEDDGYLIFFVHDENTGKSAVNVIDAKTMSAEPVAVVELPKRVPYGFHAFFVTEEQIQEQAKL
Experimental: In vitro LeCCD1a enzyme assay—We over-expressed LeCCD1a in E. coli, as a GST-fusion protein (supplemental methods). The in vitro assay of LeCCD1a was based on reported methods (37), and was carried out in a 200 μl total volume in a 96-well microtitre plate, with the signal detected at 485 nm. To prepare substrate solution for each assay, 5 μl of 4% (w/v in ethanol) apo-8′-carotenal (Sigma) was mixed with 25 μl of 4% (w/v in ethanol) β-octylglucoside (Sigma), the ethanol was then evaporated under nitrogen, and the residue dissolved in 150 μl PBS buffer containing 10 mM sodium ascorbate by incubation at 20° C. for 30 min. 50 μl of cell-free extract containing recombinant LeCCD1a was added, and the reactions monitored over 30 min at 20° C.
For the production of cell-free extracts of LeCCD1a and LeNCED1, cultures were grown to an OD of 0.6 at 37° C., then isopropyl β-D-1-thiogalactopyranoside (IPTG) was added to 0.2 mM and the cultures grown overnight at 20° C. The cells (200 ml cultures) were harvested by centrifugation (5000 rpm, 10 min) and the pellet re-suspended in 4 ml PBS, 0.1% Triton-X 100. Lysozyme was added to a final concentration of 25 μg ml^−1 and the solution incubated at room temperature for 15 min before sonication (3×30 s at 18Ω) on ice. The lysate was then centrifuged (13000 rpm, 15 min, 4° C.) and the supernatant used for the assay.
Specificity of inhibition in vitro for tomato genes LeNCED1 and LeCCD1a—In order to screen the inhibitors against enzymes which cleave carotenoids at the 9,10 position, we used the recombinant tomato LeCCD1a protein (44), because this type of enzyme can be studied using an in vitro colourimetric assay with β-apo-8′-carotenal as substrate (37). To establish the specificity of the inhibitors, they were also tested against the tomato LeNCED1 recombinant protein which cleaves 9-cis carotenoids at the 11,12 position (45). For this enzyme, the cleavage reaction was monitored by C18 reverse phase HPLC, using 9′-cis-neoxanthin as substrate.

Row | SMILES | relative inhibition of LeCCD1a in E. coli (in words) (LeCCD1a [1]) | inhibition of LeCCD1 in vitro (in words) (LeCCD1a [2]) | inhibition at 100 µM (LeCCD1a [2]) | LeCCD1a (9,10/9′,10′) Inhibition @ 100 μM (%) (LeCCD1a [2]; 100 μM inhibitor, E. coli cell extract with recombinant CCD)
1 | COc1ccc(C(=O)N(O)Cc2ccc(F)cc2)cc1 [Compound F2, N-(4-fluorobenzyl)-4-methoxybenzoyl hydroxamic acid] | good activity against LeCCD1a; also recorded: high inhibitory activity | high levels of inhibition of LeCCD1 | > 95% | 
2 | COc1ccc(C(=O)N(O)Cc2ccccc2)cc1 [Compound F1, N-benzyl-4-methoxybenzoyl hydroxamic acid] | good activity against LeCCD1a; also recorded: high inhibitory activity | high levels of inhibition of LeCCD1 | > 95% | 
3 | COc1ccc(C(=O)N(O)Cc2ccccc2)cc1OC [Compound F3, N-benzyl-3,4-dimethoxybenzoyl hydroxamic acid] | virtually none |  |  | 50%
